{"source": "the Deep4Chem optical property database", "test": "solvent given as SMILES"}
{"compound": "c1cc2ccc3cc4cccc5ccc6cc(c1)c2c3c6c54", "values": [{"measurement": "emission maximum", "setting": "in C1CCCCC1", "result": 436, "unit": "nm"}, {"measurement": "emission maximum", "setting": "in CC#N", "result": 436, "unit": "nm"}, {"measurement": "emission maximum", "setting": "in CO", "result": 436, "unit": "nm"}, {"measurement": "emission maximum", "setting": "in Cc1ccccc1", "result": 436, "unit": "nm"}, {"measurement": "emission maximum", "setting": "in ClCCl", "result": 437, "unit": "nm"}]}
{"compound": "c1ccc(-c2cc3cc4ccccc4cc3p2-c2ccccc2)cc1", "note": "(configuration not stated)", "values": [{"measurement": "emission maximum", "setting": "in ClCCl", "result": 429, "unit": "nm"}]}
{"compound": "CC(C)(C)c1ccc(-c2nc3c4ccc(-c5cc6ccccc6c6ccccc56)cc4c4cc(-c5cc6ccccc6c6ccccc56)ccc4c3n2-c2ccc(C(C)(C)C)cc2)cc1", "values": [{"measurement": "emission maximum", "setting": "in C1CCOC1", "result": 388, "unit": "nm"}, {"measurement": "emission maximum", "setting": "in C1COCCO1", "result": 386, "unit": "nm"}, {"measurement": "emission maximum", "setting": "in CC#N", "result": 405, "unit": "nm"}, {"measurement": "emission maximum", "setting": "in CCCCCC", "result": 382, "unit": "nm"}, {"measurement": "emission maximum", "setting": "in CCCCOCCCC", "result": 384, "unit": "nm"}, {"measurement": "emission maximum", "setting": "in CCN(CC)CC", "result": 384, "unit": "nm"}, {"measurement": "emission maximum", "setting": "in CCOC(C)=O", "result": 388, "unit": "nm"}, {"measurement": "emission maximum", "setting": "in CCOCC", "result": 384, "unit": "nm"}, {"measurement": "emission maximum", "setting": "in CN(C)C=O", "result": 404, "unit": "nm"}, {"measurement": "emission maximum", "setting": "in Cc1ccccc1", "result": 385, "unit": "nm"}, {"measurement": "emission maximum", "setting": "in ClC=C(Cl)Cl", "result": 388, "unit": "nm"}, {"measurement": "emission maximum", "setting": "in ClCCl", "result": 404, "unit": "nm"}]}
{"compound": "C1=C(c2ccccc2)C=C(c2ccccc2)/C1=C/C1CCCCC1", "values": [{"measurement": "emission maximum", "setting": "in C1CCOC1", "result": 420, "unit": "nm"}]}
{"compound": "Cc1ccc(CN(Cc2ccc(C)cc2)c2nc(C#N)c(N(Cc3ccc(C)cc3)Cc3ccc(C)cc3)nc2C#N)cc1", "values": [{"measurement": "emission maximum", "setting": "in ClC(Cl)Cl", "result": 592, "unit": "nm"}]}
{"compound": "CCOC(=O)c1cc(C(=O)OCC)c2cc(N(CC)CC)ccc2n1", "values": [{"measurement": "emission maximum", "setting": "in CCO", "result": 561, "unit": "nm"}]}
{"compound": "CC1=[N+]2C(=C(c3cccs3)c3ccc(C)n3[B-]2(F)F)C=C1c1cc2n(c1)[B-](F)(F)[N+]1=CC=CC1=C2c1c(C)cc(C)cc1C", "values": [{"measurement": "emission maximum", "setting": "in C1CCCCC1", "result": 650, "unit": "nm"}, {"measurement": "emission maximum", "setting": "in CCOC(C)=O", "result": 670, "unit": "nm"}]}
{"compound": "CC1=[N+]2C(=C(c3ccc(-c4c5ccccc5c(-c5ccccc5)c5ccccc45)cc3)c3ccc(C)n3[B-]2(F)F)C=C1", "values": [{"measurement": "emission maximum", "setting": "in CC#N", "result": 523, "unit": "nm"}, {"measurement": "emission maximum", "setting": "in CCCCCC", "result": 526, "unit": "nm"}, {"measurement": "emission maximum", "setting": "in CCO", "result": 526, "unit": "nm"}, {"measurement": "emission maximum", "setting": "in CN(C)C=O", "result": 529, "unit": "nm"}, {"measurement": "emission maximum", "setting": "in Cc1ccccc1", "result": 532, "unit": "nm"}, {"measurement": "emission maximum", "setting": "in ClCCl", "result": 526, "unit": "nm"}]}
{"compound": "CCCCn1c(-c2ccc(-c3nnc(-c4ccc(-c5nc6c7ccccc7c7ccccc7c6n5CCCC)cc4)o3)cc2)nc2c3ccccc3c3ccccc3c21", "values": [{"measurement": "emission maximum", "setting": "in ClCCl", "result": 451, "unit": "nm"}]}
{"compound": "CCCCCCCCCCCCCCCCCCN1C(=O)c2cccc3c(OCCN(C)C)ccc(c23)C1=O", "values": [{"measurement": "emission maximum", "setting": "in CC#N", "result": 514, "unit": "nm"}, {"measurement": "emission maximum", "setting": "in CC(C)=O", "result": 507, "unit": "nm"}, {"measurement": "emission maximum", "setting": "in CCO", "result": 510, "unit": "nm"}, {"measurement": "emission maximum", "setting": "in CCOC(C)=O", "result": 497, "unit": "nm"}, {"measurement": "emission maximum", "setting": "in CCOCC", "result": 492, "unit": "nm"}, {"measurement": "emission maximum", "setting": "in CN(C)C=O", "result": 516, "unit": "nm"}, {"measurement": "emission maximum", "setting": "in ClCCl", "result": 502, "unit": "nm"}]}
{"compound": "COc1cc(OC)c2c(c1)C(=O)c1cc(OC)cc(OC)c1-2", "values": [{"measurement": "emission maximum", "setting": "in C1CCCCC1", "result": 585, "unit": "nm"}]}
{"compound": "O=C1C=CC2=Cc3ccccc3B(O)N12", "values": [{"measurement": "emission maximum", "setting": "in CC#N", "result": 412, "unit": "nm"}, {"measurement": "emission maximum", "setting": "in CO", "result": 416, "unit": "nm"}, {"measurement": "emission maximum", "setting": "in CS(C)=O", "result": 430, "unit": "nm"}, {"measurement": "emission maximum", "setting": "in ClC(Cl)Cl", "result": 420, "unit": "nm"}]}
{"compound": "CCCCCCCCC1(CCCCCCCC)c2cc(C#CC#Cc3ccc(N(c4ccccc4)c4ccccc4)cc3)ccc2-c2ccc(C=O)cc21", "values": [{"measurement": "emission maximum", "setting": "in C1CCOC1", "result": 498, "unit": "nm"}, {"measurement": "emission maximum", "setting": "in C1COCCO1", "result": 448, "unit": "nm"}, {"measurement": "emission maximum", "setting": "in CC#N", "result": 525, "unit": "nm"}, {"measurement": "emission maximum", "setting": "in CC(C)=O", "result": 541, "unit": "nm"}, {"measurement": "emission maximum", "setting": "in CCCCCC", "result": 422, "unit": "nm"}, {"measurement": "emission maximum", "setting": "in CCOC(C)=O", "result": 500, "unit": "nm"}, {"measurement": "emission maximum", "setting": "in CN(C)C=O", "result": 523, "unit": "nm"}, {"measurement": "emission maximum", "setting": "in CS(C)=O", "result": 540, "unit": "nm"}, {"measurement": "emission maximum", "setting": "in Cc1ccccc1", "result": 442, "unit": "nm"}, {"measurement": "emission maximum", "setting": "in ClC(Cl)Cl", "result": 500, "unit": "nm"}, {"measurement": "emission maximum", "setting": "in ClCCl", "result": 520, "unit": "nm"}]}
{"compound": "COc1ccc2c(c1)c1ccccc1n2-c1nc2ccccc2nc1-n1c2ccccc2c2cc(OC)ccc21", "values": [{"measurement": "emission maximum", "setting": "in C1CCOC1", "result": 588.86, "unit": "nm"}, {"measurement": "emission maximum", "setting": "in CCCCCC", "result": 508.97, "unit": "nm"}, {"measurement": "emission maximum", "setting": "in Cc1ccccc1", "result": 560, "unit": "nm"}]}
{"compound": "CC(C)c1cccc(C(C)C)c1N1C(=O)c2ccc3c(-c4ccc(C(=O)O)cc4)c4c5ccc6c7c(ccc(c(-c8ccc(C(=O)O)cc8)c4c4ccc(c2c34)C1=O)c75)C(=O)N(c1c(C(C)C)cccc1C(C)C)C6=O", "values": [{"measurement": "emission maximum", "setting": "in ClCCl", "result": 682, "unit": "nm"}]}
{"compound": "C(=C\\c1ccc(Nc2ccccc2)cc1)/c1ccccc1", "values": [{"measurement": "emission maximum", "setting": "in CC#N", "result": 436, "unit": "nm"}, {"measurement": "emission maximum", "setting": "in CCCCCC", "result": 378, "unit": "nm"}]}
{"compound": "CC(C)(C)c1cc2c(c(C(C)(C)C)c1)O[B-](F)(F)[n+]1c-2nc(-c2ccccc2)c2cc(Cl)ccc21", "values": [{"measurement": "emission maximum", "setting": "in Cc1ccccc1", "result": 552, "unit": "nm"}]}
{"compound": "CC(C)(C)NC(=O)c1ccc(-c2cc3ccccc3s2)c2ccc3c4ccccc4c4ccccc4c3c12", "values": [{"measurement": "emission maximum", "setting": "in ClCCl", "result": 441, "unit": "nm"}]}
{"compound": "[O-][n+]1c(-c2ccccc2)cc(N2CCOCC2)nc1/C=C/c1ccccc1", "values": [{"measurement": "emission maximum", "setting": "in ClCCl", "result": 548, "unit": "nm"}]}
